# Biological target: Adrenergic receptor alpha (Rattus norvegicus) (UniProt P15823+P23944+P43140+P22086+P19328+P22909)
# Assay: Ratio of pA2 values at alpha-1 and alpha-2 adrenergic receptors.
# Assay type: protein assay
row,SMILES,Ratio
1,CCCS(=O)(=O)N(CCNS(C)(=O)=O)[C@@H]1CCN2CCc3ccccc3[C@@H]2C1,310
2,CCCS(=O)(=O)NCCN([C@@H]1CCN2CCc3ccccc3[C@@H]2C1)S(C)(=O)=O,10
3,CS(=O)(=O)N(CCNS(=O)(=O)c1ccccc1)[C@@H]1CCN2CCc3ccccc3[C@@H]2C1,1
4,CCCS(=O)(=O)N(C)[C@@H]1CCN2CCc3ccccc3[C@@H]2C1,55
5,CN(CCN([C@@H]1CCN2CCc3ccccc3[C@@H]2C1)S(C)(=O)=O)S(C)(=O)=O,3
6,Cc1ccc(S(=O)(=O)N(CCNS(C)(=O)=O)[C@@H]2CCN3CCc4ccccc4[C@@H]3C2)cc1,400
7,CS(=O)(=O)NCCCN([C@@H]1CCN2CCc3ccccc3[C@@H]2C1)S(C)(=O)=O,1
8,CS(=O)(=O)NCCN([C@@H]1CCN2CCc3ccccc3[C@@H]2C1)S(=O)(=O)c1ccc(F)cc1,100
9,CS(=O)(=O)NCCN([C@@H]1CCN2CCc3ccccc3[C@@H]2C1)S(=O)(=O)c1ccccc1,91
10,CCS(=O)(=O)NCCN([C@@H]1CCN2CCc3ccccc3[C@@H]2C1)S(=O)(=O)CC,540
11,COc1ccc(S(=O)(=O)N(CCNS(C)(=O)=O)[C@@H]2CCN3CCc4ccccc4[C@@H]3C2)cc1,100
12,CS(=O)(=O)NCCN([C@@H]1CCN2CCc3ccccc3[C@@H]2C1)S(C)(=O)=O,410

# Biological target: T1, Adrenergic receptor alpha-1 (Rattus norvegicus, UniProt P15823+P23944+P43140)
# T1 sequence (P15823 whole entry): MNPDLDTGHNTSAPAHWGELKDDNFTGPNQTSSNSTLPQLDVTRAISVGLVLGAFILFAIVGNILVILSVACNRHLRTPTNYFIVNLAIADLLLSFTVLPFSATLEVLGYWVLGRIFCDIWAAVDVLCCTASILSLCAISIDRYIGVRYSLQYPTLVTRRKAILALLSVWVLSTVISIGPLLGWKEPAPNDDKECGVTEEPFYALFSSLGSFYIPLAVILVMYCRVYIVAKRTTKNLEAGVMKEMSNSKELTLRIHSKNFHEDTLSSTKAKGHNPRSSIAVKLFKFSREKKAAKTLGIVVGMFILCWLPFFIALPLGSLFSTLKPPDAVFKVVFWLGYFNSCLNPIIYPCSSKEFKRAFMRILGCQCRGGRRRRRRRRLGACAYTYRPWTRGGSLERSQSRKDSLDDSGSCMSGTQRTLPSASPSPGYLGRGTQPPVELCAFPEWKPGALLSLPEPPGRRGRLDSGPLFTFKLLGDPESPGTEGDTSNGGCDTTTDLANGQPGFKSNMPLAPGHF
# T1 sequence (P23944 whole entry): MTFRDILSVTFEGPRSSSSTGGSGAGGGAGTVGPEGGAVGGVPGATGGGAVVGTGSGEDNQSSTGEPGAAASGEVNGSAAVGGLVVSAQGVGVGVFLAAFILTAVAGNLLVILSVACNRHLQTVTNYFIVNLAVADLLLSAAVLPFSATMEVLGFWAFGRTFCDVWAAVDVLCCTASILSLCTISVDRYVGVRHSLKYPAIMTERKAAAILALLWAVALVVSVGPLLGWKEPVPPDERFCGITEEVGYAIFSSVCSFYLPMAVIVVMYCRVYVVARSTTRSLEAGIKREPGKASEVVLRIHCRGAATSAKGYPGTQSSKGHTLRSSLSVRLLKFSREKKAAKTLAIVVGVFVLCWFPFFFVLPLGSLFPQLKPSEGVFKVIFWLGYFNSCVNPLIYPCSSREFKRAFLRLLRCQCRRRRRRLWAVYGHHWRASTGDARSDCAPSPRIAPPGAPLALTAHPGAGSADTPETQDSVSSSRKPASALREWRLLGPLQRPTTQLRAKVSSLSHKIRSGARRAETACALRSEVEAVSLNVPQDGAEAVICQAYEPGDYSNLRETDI
# T1 sequence (P43140 whole entry): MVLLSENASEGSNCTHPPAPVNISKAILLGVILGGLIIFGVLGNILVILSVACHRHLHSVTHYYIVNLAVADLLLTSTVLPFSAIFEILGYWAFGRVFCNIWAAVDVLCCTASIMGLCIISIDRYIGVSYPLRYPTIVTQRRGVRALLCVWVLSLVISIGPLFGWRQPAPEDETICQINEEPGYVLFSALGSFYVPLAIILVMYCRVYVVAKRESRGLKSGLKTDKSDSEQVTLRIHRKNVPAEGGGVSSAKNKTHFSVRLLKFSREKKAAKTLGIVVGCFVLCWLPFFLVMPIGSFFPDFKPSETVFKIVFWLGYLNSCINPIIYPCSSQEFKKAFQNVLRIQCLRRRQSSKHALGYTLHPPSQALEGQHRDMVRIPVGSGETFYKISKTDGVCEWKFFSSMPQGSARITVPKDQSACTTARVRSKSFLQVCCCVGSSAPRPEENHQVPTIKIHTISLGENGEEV
# Assay: Antagonist activity against alpha-1 adrenergic receptor of rat anococcygeus muscle.
# Assay type: functional
row,SMILES,pA2
1,CCCS(=O)(=O)N(CCNS(C)(=O)=O)[C@@H]1CCN2CCc3ccccc3[C@@H]2C1,5.8
2,CCCS(=O)(=O)NCCN([C@@H]1CCN2CCc3ccccc3[C@@H]2C1)S(C)(=O)=O,5.7
3,CS(=O)(=O)N(CCNS(=O)(=O)c1ccccc1)[C@@H]1CCN2CCc3ccccc3[C@@H]2C1,5.9
4,CN(CCN([C@@H]1CCN2CCc3ccccc3[C@@H]2C1)S(C)(=O)=O)S(C)(=O)=O,5.5
5,Cc1ccc(S(=O)(=O)N(CCNS(C)(=O)=O)[C@@H]2CCN3CCc4ccccc4[C@@H]3C2)cc1,5.8
6,CS(=O)(=O)NCCCN([C@@H]1CCN2CCc3ccccc3[C@@H]2C1)S(C)(=O)=O,5.7
7,CS(=O)(=O)NCCN([C@@H]1CCN2CCc3ccccc3[C@@H]2C1)S(=O)(=O)c1ccc(F)cc1,5.7
8,CS(=O)(=O)NCCN([C@@H]1CCN2CCc3ccccc3[C@@H]2C1)S(=O)(=O)c1ccccc1,6.16
9,CCS(=O)(=O)NCCN([C@@H]1CCN2CCc3ccccc3[C@@H]2C1)S(=O)(=O)CC,5.54
10,COc1ccc(S(=O)(=O)N(CCNS(C)(=O)=O)[C@@H]2CCN3CCc4ccccc4[C@@H]3C2)cc1,6.1
11,CS(=O)(=O)NCCN([C@@H]1CCN2CCc3ccccc3[C@@H]2C1)S(C)(=O)=O,5.32

# Biological target: T2, Adrenergic receptor alpha-2 (Rattus norvegicus, UniProt P22086+P19328+P22909)
# T2 sequence (P22086 whole entry): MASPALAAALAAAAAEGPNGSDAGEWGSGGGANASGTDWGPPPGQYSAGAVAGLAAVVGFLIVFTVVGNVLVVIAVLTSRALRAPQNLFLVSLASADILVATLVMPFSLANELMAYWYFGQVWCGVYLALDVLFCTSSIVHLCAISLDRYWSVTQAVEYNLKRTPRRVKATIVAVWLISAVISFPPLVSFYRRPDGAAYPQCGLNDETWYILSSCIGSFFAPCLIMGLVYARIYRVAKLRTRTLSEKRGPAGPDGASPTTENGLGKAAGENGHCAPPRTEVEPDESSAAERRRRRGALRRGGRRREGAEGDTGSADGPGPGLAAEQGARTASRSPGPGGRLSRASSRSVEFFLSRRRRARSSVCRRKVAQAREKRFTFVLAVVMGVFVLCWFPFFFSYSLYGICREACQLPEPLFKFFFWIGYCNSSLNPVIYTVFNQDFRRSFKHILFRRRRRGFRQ
# T2 sequence (P19328 whole entry): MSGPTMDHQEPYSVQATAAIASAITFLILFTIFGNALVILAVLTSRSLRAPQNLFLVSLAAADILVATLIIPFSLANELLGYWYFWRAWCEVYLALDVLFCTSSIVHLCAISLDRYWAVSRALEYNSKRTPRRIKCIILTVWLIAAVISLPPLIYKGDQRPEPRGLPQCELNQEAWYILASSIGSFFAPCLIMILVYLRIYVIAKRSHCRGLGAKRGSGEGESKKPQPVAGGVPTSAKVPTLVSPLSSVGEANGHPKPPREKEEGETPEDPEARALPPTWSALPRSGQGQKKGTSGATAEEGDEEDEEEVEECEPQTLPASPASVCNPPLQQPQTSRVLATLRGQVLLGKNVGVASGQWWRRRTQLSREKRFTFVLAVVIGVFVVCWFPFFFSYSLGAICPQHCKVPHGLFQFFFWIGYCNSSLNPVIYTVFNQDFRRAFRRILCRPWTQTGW
# T2 sequence (P22909 whole entry): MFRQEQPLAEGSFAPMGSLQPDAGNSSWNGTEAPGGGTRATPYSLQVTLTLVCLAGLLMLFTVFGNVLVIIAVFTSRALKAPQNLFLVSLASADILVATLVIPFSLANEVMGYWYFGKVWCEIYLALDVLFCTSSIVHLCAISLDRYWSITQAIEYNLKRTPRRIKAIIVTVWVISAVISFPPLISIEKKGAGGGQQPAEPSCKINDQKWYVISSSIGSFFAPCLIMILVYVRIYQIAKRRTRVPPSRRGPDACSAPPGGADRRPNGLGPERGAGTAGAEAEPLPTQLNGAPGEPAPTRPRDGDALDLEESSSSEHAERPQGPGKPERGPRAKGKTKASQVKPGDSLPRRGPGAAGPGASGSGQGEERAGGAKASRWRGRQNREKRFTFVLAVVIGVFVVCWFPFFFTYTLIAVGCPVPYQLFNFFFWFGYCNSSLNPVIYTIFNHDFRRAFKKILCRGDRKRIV
# Assay: Antagonism of rat alpha-2 adrenergic receptor from rat vas deferens
# Assay type: functional
row,SMILES,pA2
1,CCCS(=O)(=O)N(CCNS(C)(=O)=O)[C@@H]1CCN2CCc3ccccc3[C@@H]2C1,8.29
2,CCCS(=O)(=O)NCCN([C@@H]1CCN2CCc3ccccc3[C@@H]2C1)S(C)(=O)=O,6.7
3,CS(=O)(=O)N(CCNS(=O)(=O)c1ccccc1)[C@@H]1CCN2CCc3ccccc3[C@@H]2C1,5.9
4,CN(CCN([C@@H]1CCN2CCc3ccccc3[C@@H]2C1)S(C)(=O)=O)S(C)(=O)=O,6.03
5,Cc1ccc(S(=O)(=O)N(CCNS(C)(=O)=O)[C@@H]2CCN3CCc4ccccc4[C@@H]3C2)cc1,8.4
6,CS(=O)(=O)NCCCN([C@@H]1CCN2CCc3ccccc3[C@@H]2C1)S(C)(=O)=O,5.7
7,CS(=O)(=O)NCCN([C@@H]1CCN2CCc3ccccc3[C@@H]2C1)S(=O)(=O)c1ccc(F)cc1,7.7
8,CS(=O)(=O)NCCN([C@@H]1CCN2CCc3ccccc3[C@@H]2C1)S(=O)(=O)c1ccccc1,8.12
9,CCS(=O)(=O)NCCN([C@@H]1CCN2CCc3ccccc3[C@@H]2C1)S(=O)(=O)CC,8.27
10,COc1ccc(S(=O)(=O)N(CCNS(C)(=O)=O)[C@@H]2CCN3CCc4ccccc4[C@@H]3C2)cc1,8.1
11,CS(=O)(=O)NCCN([C@@H]1CCN2CCc3ccccc3[C@@H]2C1)S(C)(=O)=O,7.93

# Source: ChEMBL document CHEMBL1124322, “Synthesis and alpha 2-adrenoceptor antagonist activity of some disulfonamidobenzoquinolizines” (J Med Chem, 1989)
